Data: patent publication US20240123022A1, “A STABLE ANTI-ANGIOGENIC AND ANTI-INFLAMMATORY PHARMACEUTICAL FORMULATION AND PHARMACEUTICAL COMBINATION FOR TREATMENT AND PREVENTION OF PSORIASIS” (priority 2021, published 2024)

Assays:
HaCaT cell lines = experiment: Cell cycle assay (Sub-G0/G1, pro-apoptotic effect); format: cell-based, human; settings: 48 h, vs untreated
Excerpt: HaCaT cell lines were used as test system since it is widely used for studying anti-psoriatic effects. Curcumin dissolved in DMSO was taken as positive control for validation purpose. Apoptotic effect on HaCaT cell lines was detected by flow cytometry analysis.

[1] = tested on: Human endothelial cells (EA.hy.926); experiment: Tube formation assay in EA.hy.926 cells; format: cell-based
Experimental: This assay was performed to determine ability of various compounds to promote or inhibit tube formation. Compounds that are able to inhibit tube formation could be useful in various diseases, such as cancer, where tumors stimulate new blood vessel formation to receive oxygen and nutrients in order to grow beyond a relatively small size.
Human endothelial cells (EA.hy.926) grown in DMEM and about 10% FBS were used as test system to determine angiogenic effect of IS217 by assessing inhibitory effects of test item on endothelial cells tube formation.
Prior to the tube formation assay, test item of concentration ranging 1 μg/ml, 10 μg/ml, 100 μg/ml, 500 μg/ml and 1000 μg/ml were used to treat endothelial cells for its cytotoxicity effect to assess suitable concentration for tube formation assay. The cells corresponding to positive control group were treated with paclitaxel. Anthralin was also used as positive control for in house validation.
After about 24 hours of incubation in CO2 incubator, 20 μl of 5 mg/ml of MTT was added to identify percentage cytotoxicty by biotek synergy HT plate reader. After that cells were processed for tube formation assay with selected concentrations of TI. The degree of angiogenesis progression was assessed based on visual pattern recognition of photomicrographs of EA.hy.926 cells.

[2] = tested on: P-VEGFR-2, VEGFR-2, NRP-1, Akt, p-NRP1, P-Akt, ERK1/2, P-ERK1/2, p-38, P-p-38; experiment: Biomarker estimation by western blotting; format: cell-based; settings: 500 and 1000 μg/ml, western blot
Excerpt: Targets screened are as follows: P-VEGFR-1, P-VEGFR-2, P-VEGFR-3, VEGFR-1, VEGFR-2, VEGFR-3, NRP-1, MPO, Akt, PAkt, ERK1/2, P-ERK1/2, MAPK, p-38, P-p-38, p-NRP1 and GAPDH.

HUVEC cells = experiment: Tube formation assay in HUVEC cells (VEGF induced); format: cell-based, human; design: Tube formation assay results, Avg: scale not given here
Experimental: HUVEC cells were used as test system to determine angiogenic effect of IS217 by assessing the inhibitory effects of test item on endothelial cells tube formation. Prior to the tube formation assay, test item of concentration ranging 0.01 μg/ml to 1000 μg/ml were used to treat endothelial cells for its cytotoxicity effect to assess suitable concentration for tube formation assay. […] The cells corresponding to positive control group were treated with bevacizumab of concentration 1000 μg/ml. The degree of angiogenesis progression was assessed based on visual pattern recognition of photomicrographs of HUVEC cells.

[3] = tested on: isolated rabbit erythrocyte; format: cell-based
Experimental: This study was conducted to test whether IS217 induced haemolysis or not. The study was conducted in IV intended concentration.

[4] = Stability of IS217 API, accelerated condition 5 ± 3° C.; format: physicochemical
Experimental: The purpose of stability testing is to provide evidence on how the quality of a drug substance or drug product varies with time under the influence of a variety of environmental factors such as temperature, humidity, etc. and to establish a re-test period for the drug substance or a shelf life for the drug product and recommended storage conditions. The study was conducted according to the WHO and Schedule-Y guidelines.
The drug substance is a lyophilized white fluffy powder, and it was filled at sterile condition in glass injection vial which has airlock-rubber capping. This container closure system is the same as or simulates the packaging proposed for storage and distribution.
This study has included testing of those attributes of the drug substance that are susceptible to change during storage and are likely to influence quality, safety and/or efficacy. The testing was covered, as appropriate, the physical and chemical attributes.
The following test attributes have been selected according to above said guidelines. • Appearance; odour; colour; colour of solution (when the drug substance is soluble in solvent); clarity of solution; degradation and assessment of container closure system
The studies were conducted under appropriate storage conditions (with appropriate tolerances) that test drug substance thermal stability and its sensitivity to moisture. The drug substance is intended to store for 24 months. Accordingly, long term stability studies were done for 24 months. The details of the storage conditions have been furnished hereunder.
Name of the product: IS217; Batch size: 200 m·mol; Storage conditions: 5±3° C.

In the case of “H-FAKKFAKKFK-OH [IS217, H-Phe-Ala-Lys-Lys-Phe-Ala-Lys-Lys-Phe-Lys-OH]”, the “increase in pro-apoptotic cells (Sub-G0/G1 population)” value (“increase in pro-apoptotic cells” below) (HaCaT cell lines; 100 μg/mL) was 1.2 fold, the “increase in pro-apoptotic cells” value (HaCaT cell lines; 500 μg/mL) was 5.0 fold and the “increase in pro-apoptotic cells” value (HaCaT cell lines; 1000 μg/mL) was 6.8 fold. For the same substance, the “increase in pro-apoptotic cells” value (HaCaT cell lines; 5000 μg/mL) was 1.1 fold, the “inhibition of endothelial morphogenesis on matrigel” value ([1]; Ea.hy.926, 500 μg/ml) was “Complete inhibition” and the endothelial tube formation ([1]; Ea.hy.926, all test concentrations 1 μg/ml to 1000 μg/ml) was “block endothelial tube formation”. For the same substance, the “protein levels of P-VEGFR-2, VEGFR-2, NRP-1, Akt, p-NRP1, P-Akt, ERK1/2, P-ERK1/2, p-38, P-p-38” value [2] was “downregulated”, the “Tube formation assay results, Avg” value (HUVEC cells; 100 μg + VEGF) was 2.55 and the “Tube formation assay results, Avg” value (HUVEC cells; 100 μg, without VEGF) was 0.33. The “Tube formation assay results, Avg” value (HUVEC cells; 250 μg + VEGF) was 1.33, the “Tube formation assay results, Avg” value (HUVEC cells; 250 μg, without VEGF) was 0.33 and the “Tube formation assay results, Avg” value (HUVEC cells; 500 μg + VEGF) was 0.88. The “Tube formation assay results, Avg” value (HUVEC cells; 500 μg, without VEGF) was 0.33, the “Tube formation assay results, Avg” value (HUVEC cells; 1000 μg + VEGF) was 0.55 and the “Tube formation assay results, Avg” value (HUVEC cells; 1000 μg, without VEGF) was 0.33. The “inhibition of endothelial morphogenesis on matrigel” value (HUVEC cells; HUVEC, 1000 μg/ml) was “Complete inhibition”, the endothelial tube formation (HUVEC cells; HUVEC, all test concentrations 100 μg/ml to 1000 μg/ml) was “block endothelial tube formation” and the “mean hemoglobin value compared with negative control and positive control” value [3] was “non-significant”. For the same substance, the mean haemolytic index ([3]; red cells of rabbit) was 0%, the “API calculated on the anhydrous basis (OAB)” value (“API calculated” for short) ([4]; 5 ± 3° C., 1 M) was 99.36% and the “Related substances (By HPLC), Any Max. Impurity” value ([4]; 5 ± 3° C., 1 M) was 0.52%. The “Related substances (By HPLC), Total Impurity” value ([4]; 5 ± 3° C., 1 M) was 0.63%, the “Solubility (Soluble in water)” value ([4]; 5 ± 3° C., 1 M) was “Complies” and the “Water Content (By Karl Fischer-Titrator)” value ([4]; 5 ± 3° C., 1 M) was 4.61% w/w. The “Appearance, change” value ([4]; 5 ± 3° C., 1st month) was “No change”, the “Assessment of container closure system, change” value (“Assessment … change” for short) ([4]; 5 ± 3° C., 1st month) was “No change” and the “Clarity of solution, change” value ([4]; 5 ± 3° C., 1st month) was “No change”. For the same substance, the “Color of Solution, change” value ([4]; 5 ± 3° C., 1st month) was “No change”, the “Color, change” value ([4]; 5 ± 3° C., 1st month) was “No change” and the “Odor, change” value ([4]; 5 ± 3° C., 1st month) was “No change”. For the same substance, the “API calculated” value ([4]; 5 ± 3° C., 2 M) was 99.25%, the “Related substances (By HPLC), Any Max. Impurity” value ([4]; 5 ± 3° C., 2 M) was 0.53% and the “Related substances (By HPLC), Total Impurity” value ([4]; 5 ± 3° C., 2 M) was 0.76%. The “Solubility (Soluble in water)” value ([4]; 5 ± 3° C., 2 M) was “Complies”, the “Water Content (By Karl Fischer-Titrator)” value ([4]; 5 ± 3° C., 2 M) was 4.55% w/w and the “Appearance, change” value ([4]; 5 ± 3° C., 2nd month) was “No change”. The “Assessment … change” value ([4]; 5 ± 3° C., 2nd month) was “No change”, the “Clarity of solution, change” value ([4]; 5 ± 3° C., 2nd month) was “No change” and the “Color of Solution, change” value ([4]; 5 ± 3° C., 2nd month) was “No change”. For the same substance, the “Color, change” value ([4]; 5 ± 3° C., 2nd month) was “No change”, the “Odor, change” value ([4]; 5 ± 3° C., 2nd month) was “No change” and the “API calculated” value ([4]; 5 ± 3° C., 3 M) was 99.06%. For the same substance, the “Related substances (By HPLC), Any Max. Impurity” value ([4]; 5 ± 3° C., 3 M) was 0.59%, the “Related substances (By HPLC), Total Impurity” value ([4]; 5 ± 3° C., 3 M) was 0.94% and the “Solubility (Soluble in water)” value ([4]; 5 ± 3° C., 3 M) was “Complies”. The “Water Content (By Karl Fischer-Titrator)” value ([4]; 5 ± 3° C., 3 M) was 4.60% w/w, the “Appearance, change” value ([4]; 5 ± 3° C., 3rd month) was “No change” and the “Assessment … change” value ([4]; 5 ± 3° C., 3rd month) was “No change”. For the same substance, the “Clarity of solution, change” value ([4]; 5 ± 3° C., 3rd month) was “No change”, the “Color of Solution, change” value ([4]; 5 ± 3° C., 3rd month) was “No change” and the “Color, change” value ([4]; 5 ± 3° C., 3rd month) was “No change”. The “Odor, change” value ([4]; 5 ± 3° C., 3rd month) was “No change”, the “API calculated” value ([4]; 5 ± 3° C., 6 M) was 99.22% and the “Related substances (By HPLC), Any Max. Impurity” value ([4]; 5 ± 3° C., 6 M) was 0.43%. For the same substance, the “Related substances (By HPLC), Total Impurity” value ([4]; 5 ± 3° C., 6 M) was 0.78%, the “Solubility (Soluble in water)” value ([4]; 5 ± 3° C., 6 M) was “Complies” and the “Water Content (By Karl Fischer-Titrator)” value ([4]; 5 ± 3° C., 6 M) was 4.62% w/w. For the same substance, the “Appearance, change” value ([4]; 5 ± 3° C., 6th month) was “No change”, the “Assessment … change” value ([4]; 5 ± 3° C., 6th month) was “No change” and the “Clarity of solution, change” value ([4]; 5 ± 3° C., 6th month) was “No change”. For the same substance, the “Color of Solution, change” value ([4]; 5 ± 3° C., 6th month) was “No change”, the “Color, change” value ([4]; 5 ± 3° C., 6th month) was “No change” and the “Odor, change” value ([4]; 5 ± 3° C., 6th month) was “No change”. The “API calculated” value ([4]; 5 ± 3° C., Initial) was 99.28%, the “Related substances (By HPLC), Any Max. Impurity” value ([4]; 5 ± 3° C., Initial) was 0.60% and the “Related substances (By HPLC), Total Impurity” value ([4]; 5 ± 3° C., Initial) was 0.72%. For the same substance, the Remark ([4]; 5 ± 3° C., Initial) was “Complies”, the “Solubility (Soluble in water)” value ([4]; 5 ± 3° C., Initial) was “Complies” and the “Water Content (By Karl Fischer-Titrator)” value ([4]; 5 ± 3° C., Initial) was 4.66% w/w. The “stability of IS217 API” value ([4]; 6 months at accelerated condition 5 ± 3° C.) was “stable” and the “stability of drug substance” value ([4]; refrigerator (5 ± 3° C.) conditions for 24 months, concluded from Tables 13 to 16) was “stable”.
